What was measured:
[1] = target: T1, DGKα (hDGKalpha(1-735)-N-His) (Homo sapiens, UniProt P23743); experiment: In vitro DGK inhibition assay, DGKalpha ADP Glo (in house); type: biochemical; conditions: 4 nM DGKα, 25 μM ATP, 125 uM DLG in liposomes, 1 hour reaction
T1 construct: hDGKalpha(1-735)-N-His; His (N); made in house; host or cells: Sf21 insect cells (baculovirus)
Procedure, shortened: (§1)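 Full-length His-tagged human DGKα (4 nM) or DGKζ (2 nM), expressed in Sf21 cells, phosphorylated 125 µM DLG in PS/PC liposomes with ATP at 25 µM (α) or 50 µM (ζ) for 1 h. ADP was measured by ADP-Glo luminescence. Compounds were tested as 11-point 1:3 series in 2% DMSO.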

primary human T-cells = experiment: Proliferation assay (5 days, CellTiter-Glo, CD3-stimulated T-cells); type: cell-based; conditions: for Emax proliferation (% activation): CD3 condition, normalised to DMSO (neutral) and 20 μM reference compound A1 = 100%; for EC50: Homo sapiens, T-cell, 120 h, CD3-stimulated primary human T-cells, 5 days, CellTiter-Glo, fitted sigmoidal curve, read-out: Tcell Proliferation CD3 EC50
Procedure, shortened: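 Expanded primary human T-cells, 100 k cells/well, were stimulated with plate-coated CD3 antibody (donor-titrated) and given compound in a 5 or 6 pt dose response from 20 μM or 10 μM final top, 0.2% DMSO final. ATP was read by CellTiter-Glo after 5 days. EC50 and Emax were reported as % of 20 μM reference compound A1.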

[2] = target: T2, DGKζ (hDGKzeta(1-928)-N-His) (Homo sapiens, UniProt Q13574); experiment: In vitro DGK inhibition assay, DGKzeta ADP Glo (in house); type: biochemical; conditions: 2 nM DGKζ, 50 μM ATP, 125 uM DLG in liposomes, 1 hour reaction
T2 construct: hDGKzeta(1-928)-N-His; His (N); made in house; host or cells: Sf21 insect cells (baculovirus)
T2 sequence (Q13574 whole entry): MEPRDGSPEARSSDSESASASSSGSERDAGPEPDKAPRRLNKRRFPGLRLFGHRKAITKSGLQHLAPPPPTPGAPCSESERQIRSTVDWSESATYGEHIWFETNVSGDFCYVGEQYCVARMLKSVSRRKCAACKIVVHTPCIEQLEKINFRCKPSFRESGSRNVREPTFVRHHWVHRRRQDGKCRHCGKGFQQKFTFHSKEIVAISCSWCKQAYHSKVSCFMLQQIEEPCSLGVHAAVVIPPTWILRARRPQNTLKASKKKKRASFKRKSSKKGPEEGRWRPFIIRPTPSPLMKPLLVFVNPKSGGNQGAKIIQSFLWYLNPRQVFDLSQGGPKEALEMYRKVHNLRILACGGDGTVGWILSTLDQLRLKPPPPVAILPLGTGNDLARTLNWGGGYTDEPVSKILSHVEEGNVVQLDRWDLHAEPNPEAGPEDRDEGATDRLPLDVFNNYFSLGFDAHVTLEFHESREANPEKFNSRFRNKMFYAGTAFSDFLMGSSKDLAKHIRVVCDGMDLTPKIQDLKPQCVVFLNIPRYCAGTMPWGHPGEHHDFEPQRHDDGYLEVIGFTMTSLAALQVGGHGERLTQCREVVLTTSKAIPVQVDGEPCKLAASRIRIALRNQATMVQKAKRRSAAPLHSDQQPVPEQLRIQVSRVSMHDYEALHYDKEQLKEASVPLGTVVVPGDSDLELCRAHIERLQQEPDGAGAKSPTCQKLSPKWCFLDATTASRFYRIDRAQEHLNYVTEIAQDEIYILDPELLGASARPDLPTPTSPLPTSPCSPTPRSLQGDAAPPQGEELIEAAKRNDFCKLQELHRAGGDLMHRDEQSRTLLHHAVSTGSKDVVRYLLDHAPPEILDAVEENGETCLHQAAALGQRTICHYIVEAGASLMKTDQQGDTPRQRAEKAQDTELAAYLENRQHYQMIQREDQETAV
Procedure, shortened: as §1

T1 sequence (P23743 whole entry): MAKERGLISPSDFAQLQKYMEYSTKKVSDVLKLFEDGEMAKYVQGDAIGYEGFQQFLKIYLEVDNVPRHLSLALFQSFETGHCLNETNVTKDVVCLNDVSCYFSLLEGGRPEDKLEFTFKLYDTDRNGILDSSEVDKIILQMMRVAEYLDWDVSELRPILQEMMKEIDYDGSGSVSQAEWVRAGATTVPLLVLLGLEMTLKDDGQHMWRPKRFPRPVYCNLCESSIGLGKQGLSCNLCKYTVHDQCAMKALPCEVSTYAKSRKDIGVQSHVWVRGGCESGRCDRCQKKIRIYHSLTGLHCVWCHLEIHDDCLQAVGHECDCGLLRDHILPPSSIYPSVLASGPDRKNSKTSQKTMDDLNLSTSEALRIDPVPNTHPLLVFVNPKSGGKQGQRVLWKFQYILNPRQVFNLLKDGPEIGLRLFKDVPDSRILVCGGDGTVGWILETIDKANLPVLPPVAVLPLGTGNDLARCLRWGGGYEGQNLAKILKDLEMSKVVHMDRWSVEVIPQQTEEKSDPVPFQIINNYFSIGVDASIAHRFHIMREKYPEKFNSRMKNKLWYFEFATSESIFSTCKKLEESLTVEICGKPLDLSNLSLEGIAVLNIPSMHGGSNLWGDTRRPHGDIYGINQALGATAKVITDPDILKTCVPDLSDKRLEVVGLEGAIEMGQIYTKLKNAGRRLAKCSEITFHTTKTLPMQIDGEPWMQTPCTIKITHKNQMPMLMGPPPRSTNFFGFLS

Structure (SMILES) | IC50 [1] [nM] | Emax proliferation (% activation) (primary human T-cells) | EC50 (primary human T-cells) [nM] | IC50 [2] [nM]
CC(C)(C#N)c1nnc(-c2ccc3c(c2)N(Cc2ccc(-c4cc(OC(F)(F)F)ccn4)cc2)C(=O)[C@@H](N)CS3(=O)=O)o1 [Example 126, 2-[5-[(3R)-3-amino-1,1,4-trioxo-5-[[4-[4-(trifluoromethoxy)-2-pyridyl]phenyl]methyl]-2,3-dihydro-1λ^6,5-benzothiazepin-7-yl]-1,3,4-oxadiazol-2-yl]-2-methyl-propanenitrile] | 4380 | 212 | 2490 | 541
CC(C)(C#N)c1nnc(-c2ccc3c(c2)N(Cc2ccc(-c4ncc(C(F)(F)F)cn4)cc2)C(=O)[C@@H](N)CS3(=O)=O)o1 [Example 127, 2-[5-[(3R)-3-amino-1,1,4-trioxo-5-[[4-[5-(trifluoromethyl)pyrimidin-2-yl]phenyl]methyl]-2,3-dihydro-1λ^6,5-benzothiazepin-7-yl]-1,3,4-oxadiazol-2-yl]-2-methyl-propanenitrile] | > 60000 | 130 | 1980 | 2450
CC(C)(C#N)c1nnc(-c2ccc3c(c2)N(Cc2ccc(-c4ccc(OC(F)(F)C(F)(F)F)cn4)cc2)C(=O)[C@@H](N)CS3(=O)=O)o1 [Example 129, 2-[5-[(3R)-3-amino-1,1,4-trioxo-5-[[4-[5-(1,1,2,2,2-pentafluoroethoxy)-2-pyridyl]phenyl]methyl]-2,3-dihydro-1λ^6,5-benzothiazepin-7-yl]-1,3,4-oxadiazol-2-yl]-2-methyl-propanenitrile] | 1680 | 119 | 22.8 | 948
N[C@H]1CS(=O)(=O)c2ccc(-c3nnc(C4(C(F)F)CNC4)o3)cc2N(Cc2ccc(-c3ccc(C(F)(F)F)cc3)cc2)C1=O [Example 152] | > 60000 | 90 | 1440 | 12200
C[C@@](N)(c1nnc(-c2ccc3c(c2)N(Cc2ccc(-c4ccc(OC(F)(F)F)cn4)cc2)C(=O)[C@@H](N)CS3(=O)=O)o1)C(F)(F)F [Example 153, (3R)-3-amino-7-[5-[(1R)-1-amino-2,2,2-trifluoro-1-methyl-ethyl]-1,3,4-oxadiazol-2-yl]-1,1-dioxo-5-[[4-[5-(trifluoromethoxy)-2-pyridyl]phenyl]methyl]-2,3-dihydro-1λ^6,5-benzothiazepin-4-one] | 2050 | 178 | 130 | 2250
C[C@@](N)(c1nnc(-c2ccc3c(c2)N(Cc2ccc(-c4ccc(C(F)(F)F)cn4)cc2)C(=O)[C@@H](N)CS3(=O)=O)o1)C(F)(F)F [Example 154, (3R)-3-amino-7-[5-[(1R)-1-amino-2,2,2-trifluoro-1-methyl-ethyl]-1,3,4-oxadiazol-2-yl]-1,1-dioxo-5-[[4-[5-(trifluoromethyl)-2-pyridyl]phenyl]methyl]-2,3-dihydro-1λ^6,5-benzothiazepin-4-one] | 23600 | 151 | 984 | 3100
C[C@@](N)(c1nnc(-c2ccc3c(c2)N(Cc2ccc(-n4nnc(C(F)(F)F)n4)cc2)C(=O)[C@@H](N)CS3(=O)=O)o1)C(F)(F)F [Example 156, (3R)-3-amino-7-[5-[(1R)-1-amino-2,2,2-trifluoro-1-methyl-ethyl]-1,3,4-oxadiazol-2-yl]-1,1-dioxo-5-[[4-[5-(trifluoromethyl)tetrazo 1-2-yl]phenyl]methyl]-2,3-dihydro-1λ^6,5-benzothiazepin-4-one] | 17800 | 141 | 1710 | 2960
COC(=O)N1CC2CC(c3nnc(-c4ccc5c(c4)N(Cc4ccc(-c6noc(C(F)(F)F)n6)cc4)C(=O)[C@@H](N)CS5(=O)=O)o3)(C2)C1 [Example 158, methyl 1-[5-[(3R)-3-amino-1,1,4-trioxo-5-[[4-[5-(trifluoromethyl)-1,2,4-oxadiazol-3-yl]phenyl]methyl]-2,3-dihydro-1λ^6,5-benzothiazepin-7-yl]-1,3,4-oxadiazol-2-yl]-3-azabicyclo[3.1.1]heptane-3-carboxylate] | > 60000 | 150 | 304 | 1130
N[C@H]1CS(=O)(=O)c2ccc(-c3nnc(N4CCC(F)(F)CC4)o3)cc2N(Cc2ccc(-c3ccc(C(F)(F)F)cn3)cc2)C1=O [Example 160] | 5180 | 150 | 1300 | 922
N[C@H]1CS(=O)(=O)c2ccc(-c3nnc(N4CCC(F)(F)CC4)o3)cc2N(Cc2ccc(-n3ccc(C(F)(F)F)n3)cc2)C1=O [Example 162, (3R)-3-amino-7-[5-(4,4-difluoro-1-piperidyl)-1,3,4-oxadiazol-2-yl]-1,1-dioxo-5-[[4-[3-(trifluoromethyl)pyrazol-1-yl]phenyl]methyl]-2,3-dihydro-1λ^6,5-benzothiazepin-4-one] | > 62500 | 186 | 563 | 1100
CC(C)(c1nnc(-c2ccc3c(c2)N(Cc2ccc(-c4ccc(OC(F)(F)F)cn4)cc2)C(=O)[C@@H](N)CS3(=O)=O)o1)C(F)(F)F [Example 165, (3R)-3-amino-1,1-dioxo-7-[5-(2,2,2-trifluoro-1,1-dimethyl-ethyl)-1,3,4-oxadiazol-2-yl]-5-[[4-[5-(trifluoromethoxy)-2-pyridyl]phenyl]methyl]-2,3-dihydro-1λ^6,5-benzothiazepin-4-one] | 1140 | 139 | 153 | 2220
N[C@H]1CS(=O)(=O)c2ccc(-c3nnc(C(F)C(F)(F)F)o3)cc2N(Cc2ccc(-c3noc(C4CC4)n3)cc2)C1=O (stereo partly drawn) [Example 168, (3R)-3-amino-5-[[4-(5-cyclopropyl-1,2,4-oxadiazol-3-yl)phenyl]methyl]-1,1-dioxo-7-[5-(1,2,2,2-tetrafluoroethyl)-1,3,4-oxadiazol-2-yl]-2,3-dihydro-1λ^6,5-benzothiazepin-4-one] | > 62500 | 62 | 2620 | 1600
CC(O)(c1nnc(-c2ccc3c(c2)N(Cc2ccc(-c4noc(C5CC5)n4)cc2)C(=O)[C@@H](N)CS3(=O)=O)o1)C(F)(F)F (stereo partly shown) [Example 170] | > 62500 | 89 | 1010 | 2000
N[C@H]1CS(=O)(=O)c2ccc(-c3nnc(C(N)(C4CC4)C(F)(F)F)o3)cc2N(Cc2ccc(-c3noc(C4CC4)n3)cc2)C1=O (stereo partly shown) [Example 171] | > 60000 | 109 | 1520 | 722
N#CC1(c2nnc(-c3ccc4c(c3)N(Cc3ccc(-c5ccc(OC(F)(F)F)cn5)cc3)C(=O)[C@@H](N)CS4(=O)=O)o2)CCC1 [Example 172, 1-[5-[(3R)-3-amino-1,1,4-trioxo-5-[[4-[5-(trifluoromethoxy)-2-pyridyl]phenyl]methyl]-2,3-dihydro-1λ^6,5-benzothiazepin-7-yl]-1,3,4-oxadiazol-2-yl]cyclobutanecarbonitrile] | 2520 | 101 | 303 | 732
CC(C)(CC#N)c1nnc(-c2ccc3c(c2)N(Cc2ccc(-c4ccc(OC(F)(F)F)cn4)cc2)C(=O)[C@@H](N)CS3(=O)=O)o1 [Example 175, 3-[5-[(3R)-3-amino-1,1,4-trioxo-5-[[4-[5-(trifluoromethoxy)-2-pyridyl]phenyl]methyl]-2,3-dihydro-1λ^6,5-benzothiazepin-7-yl]-1,3,4-oxadiazol-2-yl]-3-methyl-butanenitrile] | 961 | 105 | 121 | 734

From patent US20260138976A1 (Hoffmann-La Roche Inc., priority 2022, published 2026)
